Like-named read-outs stand apart in the source and are kept apart here. Positions of bridges follow the written chain, without caps; N, C: chain ends. Non-standard residues stand in square brackets, D forms with d. Residues, ends and D or L forms follow the SMILES beside them. Trp(6-Cl) = N[C@@H](Cc1c[nH]c2cc(Cl)ccc12)C(=O)O; 2Nal = N[C@@H](Cc1ccc2ccccc2c1)C(=O)O; R8 = C=CCCCCCC[C@@](C)(N)C(=O)O; Cit = NC(=O)NCCC[C@H](N)C(=O)O; Cba = N[C@@H](CC1CCC1)C(=O)O; S5 = C=CCCC[C@](C)(N)C(=O)O; Nle = CCCC[C@H](N)C(=O)O; Dab = NCC[C@H](N)C(=O)O; Dap = NC[C@H](N)C(=O)O; Ahx = NCCCCCC(=O)O
Assays:
[1] = Lactate dehydrogenase (LDH) release assay; format: cell-based
Method: (§1) HCT116 cells were stably transfected with a p53 responsive β-lactamase reporter and expanded in McCoy’s 5 A Medium with 10% fetal bovine serum (FBS), Blasticidin, and Penicillin/Streptomycin and then transferred to 1.5 ml freezing vials and stored under liquid nitrogen in growth media containing 5% DMSO. […] The cells were then seeded into a 384-well plate at a density of 8000 cells per well. […] The final working concentration of DMSO was 0.5%. Lactate dehydrogenase release was detected using the CytoTox-ONE Homogenous Membrane Integrity Assay Kit (Promega), as per the manufacturer’s instructions. Measurements were carried out using the Tecan plate reader. […] Measurements were taken a minimum of three times (biological replicates) and values are reported as geometric means of the replicates.

[2] = system: HCT116 cells; test: Lactate dehydrogenase (LDH) release assay; format: cell-based
Method: as §1

SMILES	EC50 ([1]; LDH: Cytotoxicity assay EC50)	LDH: Cytotoxicity assay % Effect [2]	also measured
CC(=O)N[C@@H](CCN)C(=O)NCCCCCC(=O)N[C@H](C(=O)N[C@@H](CO)C(=O)N[C@@H](Cc1ccccc1)C(=O)N[C@]1(C)CCCCCCC=CCCC[C@@](C)(C(=O)N[C@@H](CCC(=O)O)C(=O)N[C@@H](CC(N)=O)C(=O)N[C@@H](Cc2ccccc2)C(N)=O)NC(=O)[C@H](CC(C)C)NC(=O)[C@H](CC(C)C)NC(=O)[C@H](C)NC(=O)[C@H](Cc2c[nH]c3ccccc23)NC(=O)[C@H](Cc2ccc(O)cc2)NC(=O)[C@H](CCC(=O)O)NC1=O)[C@@H](C)O [MP-666]	> 50 µM	15.43%	
CC(=O)N[C@H](C(=O)N[C@@H](CO)C(=O)N[C@@H](Cc1ccccc1)C(=O)N[C@]1(C)CCCCCCC=CCCC[C@@](C)(C(=O)N[C@@H](CCC(=O)O)C(N)=O)NC(=O)[C@H](CC2CCC2)NC(=O)[C@H](CC(C)C)NC(=O)[C@H](C)NC(=O)[C@H](Cc2c[nH]c3ccccc23)NC(=O)[C@H](Cc2ccc(O)cc2)NC(=O)[C@H](CCC(=O)O)NC1=O)[C@@H](C)O [MP-140] (Ac-TSF[R8]EYWAL[Cba][S5]E-NH2; staple 4-11)	> 50 µM	11.41%	
CC(=O)N[C@H](C(=O)N[C@@H](CCCNC(N)=O)C(=O)N[C@@H](CCCCN)C(=O)NCCCCCC(=O)N[C@H](C(=O)N[C@@H](CO)C(=O)N[C@@H](Cc1ccccc1)C(=O)N[C@]1(C)CCCCCCC=CCCC[C@@](C)(C(=O)N[C@@H](CCC(=O)O)C(=O)N[C@@H](CC(N)=O)C(=O)N[C@@H](Cc2ccccc2)C(N)=O)NC(=O)[C@H](CC(C)C)NC(=O)[C@H](CC(C)C)NC(=O)[C@H](C)NC(=O)[C@H](Cc2c[nH]c3ccccc23)NC(=O)[C@H](Cc2ccc(O)cc2)NC(=O)[C@H](CCC(=O)O)NC1=O)[C@@H](C)O)C(C)C [MP-668] (Ac-V[Cit]K[Ahx]TSF[R8]EYWALL[S5]ENF-NH2; staple 8-15)	> 50 µM	4.429%	
CC(=O)N[C@@H](CCCCN=[N+]=[N-])C(=O)NCCC(=O)N[C@@H](CC(C)C)C(=O)N[C@H](C(=O)N[C@@H](Cc1ccccc1)C(=O)N[C@]1(C)CCCCC#CC#CCCC[C@@](C)(C(=O)N[C@@H](C)C(=O)N[C@@H](C)C(=O)NC(C)(CCC(=O)O)C(=O)N[C@@H](C)C(=O)N[C@@H](C)C(=O)N[C@H](C)C(N)=O)NC(=O)[C@H](CC2CCC2)NC(=O)[C@H](CCC(N)=O)NC(=O)[C@H](C)NC(=O)[C@H](Cc2c[nH]c3ccccc23)NC(=O)[C@H](Cc2ccc(O)cc2)NC(=O)[C@H](CCC(=O)O)NC1=O)[C@@H](C)O (stereo partly shown) [MP-467, Ac-K(N3)-(betaAla)-LTF(X)EYWAQ(Cba)(X)AA(a-methly-Glu)AA(DAla)-NH2]			EC50 ([1]; 0% FBS 4Hr, read-out: LDH: Cytotoxicity assay EC50): > 50.7 µM; EC50 ([1]; 10% FBS 16Hr, read-out: LDH: Cytotoxicity assay EC50): > 50.7 µM
CC(=O)N[C@@H](CCCCN=[N+]=[N-])C(=O)NCCC(=O)N[C@@H](CC(C)C)C(=O)N[C@@H](CCC(=O)O)C(=O)N[C@@H](Cc1ccccc1)C(=O)N[C@@]1(C)CCCCCCC=CCCC[C@@](C)(C(=O)N[C@@H](CO)C(=O)N[C@@H](C)C(=O)N[C@@H](C)C(N)=O)NC(=O)[C@H](CC2CCC2)NC(=O)[C@H](CCC(N)=O)NC(=O)[C@H](C)NC(=O)[C@H](Cc2c[nH]c3ccccc23)NC(=O)[C@H](Cc2ccc(O)cc2)NC(=O)[C@H](CCC(=O)O)NC1=O [MP-630]			EC50 ([1]; LDH: Cytotoxicity assay: EC50): > 50.7 µM
CCCC[C@@H]1NC(=O)[C@H](CC(C)C)NC(=O)[C@H](C)NC(=O)[C@H](Cc2c[nH]c3ccccc23)NC(=O)[C@H](Cc2ccc(O)cc2)NC(=O)[C@H](CCC(=O)O)NC(=O)[C@](C)(NC(=O)[C@H](Cc2ccc3ccccc3c2)NC(=O)[C@H](CO)NC(=O)[C@@H](NC(C)=O)[C@@H](C)O)CCCCCCC=CCCC[C@@](C)(C(N)=O)NC1=O [MP-147] (Ac-TS[2Nal][R8]EYWAL[Nle][S5]-NH2; staple 4-11)	> 50 µM	20.59%	
CC(=O)N[C@@H](CCN)C(=O)N[C@@H](CCN)C(=O)NCCCCCC(=O)N[C@H](C(=O)N[C@@H](CO)C(=O)N[C@@H](Cc1ccccc1)C(=O)N[C@]1(C)CCCCCCC=CCCC[C@@](C)(C(=O)N[C@@H](CCC(=O)O)C(=O)N[C@@H](CC(N)=O)C(=O)N[C@@H](Cc2ccccc2)C(N)=O)NC(=O)[C@H](CC(C)C)NC(=O)[C@H](CC(C)C)NC(=O)[C@H](C)NC(=O)[C@H](Cc2c[nH]c3ccccc23)NC(=O)[C@H](Cc2ccc(O)cc2)NC(=O)[C@H](CCC(=O)O)NC1=O)[C@@H](C)O [MP-664] (Ac-[Dab][Dab][Ahx]TSF[R8]EYWALL[S5]ENF-NH2; staple 7-14)	> 50 µM	4.71%	
CC(=O)N[C@@H](CCCCN=[N+]=[N-])C(=O)NCCC(=O)N[C@@H](CC(C)C)C(=O)N[C@H](C(=O)N[C@@H](Cc1ccccc1)C(=O)N[C@]1(C)CCCCCCC=CCCC[C@@](C)(C(=O)N[C@@H](CO)C(=O)N[C@@H](C)C(=O)N[C@@H](C)C(N)=O)NC(=O)[C@H](CC2CCC2)NC(=O)[C@H](CCC(N)=O)NC(=O)[C@H](C)NC(=O)[C@H](Cc2c[nH]c3cc(Cl)ccc23)NC(=O)[C@H](Cc2ccc(CP(=O)(O)O)cc2)NC(=O)[C@H](CCC(=O)O)NC1=O)[C@@H](C)O [MP-891]			EC50 ([1]; 0% FBS 4Hr, read-out: LDH: Cytotoxicity assay: EC50): > 50.6 µM; LDH: Cytotoxicity assay: % Effect ([2]; 0% FBS 4Hr): 3.299%
CC(=O)N[C@@H](CCCCN=[N+]=[N-])C(=O)NCCC(=O)N[C@@H](CC(C)C)C(=O)N[C@H](C(=O)N[C@@H](Cc1ccccc1)C(=O)N[C@]1(C)CCCCCCC=CCCC[C@@](C)(C(=O)N[C@@H](CO)C(=O)N[C@@H](C)C(=O)N[C@@H](C)C(N)=O)NC(=O)[C@H](CC2CCC2)NC(=O)[C@H](CCC(N)=O)N(C)C(=O)[C@H](C)NC(=O)[C@H](Cc2c[nH]c3ccccc23)NC(=O)[C@H](Cc2ccc(O)cc2)NC(=O)[C@H](CCC(=O)O)NC1=O)[C@@H](C)O [MP-499]			EC50 ([1]; LDH: Cytotoxicity assay: EC50): > 50.6 µM; LDH: Cytotoxicity assay: % Effect [2]: 13.75%
CC(=O)N[C@@H](CCCCN)C(=O)N[C@@H](CCCCN)C(=O)N[C@H](C(=O)N[C@@H](CO)C(=O)N[C@@H](Cc1ccccc1)C(=O)N[C@]1(C)CCCCCCC=CCCC[C@@](C)(C(=O)N[C@@H](CCC(=O)O)C(N)=O)NC(=O)[C@H](CC2CCC2)NC(=O)[C@H](CC(C)C)NC(=O)[C@H](C)NC(=O)[C@H](Cc2c[nH]c3ccccc23)NC(=O)[C@H](Cc2ccc(O)cc2)NC(=O)[C@H](CCC(=O)O)NC1=O)[C@@H](C)O [MP-157] (Ac-KKTSF[R8]EYWAL[Cba][S5]E-NH2; staple 6-13)	> 50 µM	5.957%	
CCCC[C@@H]1NC(=O)[C@H](CC(C)C)NC(=O)[C@H](C)NC(=O)[C@H](Cc2c[nH]c3ccccc23)NC(=O)[C@H](Cc2ccc(O)cc2)NC(=O)[C@H](CCC(=O)O)NC(=O)[C@](C)(NC(=O)[C@H](Cc2ccccc2)NC(=O)[C@H](CO)NC(=O)[C@@H](NC(C)=O)[C@@H](C)O)CCCCCCC=CCCC[C@@](C)(C(N)=O)NC1=O [MP-151]	> 50 µM	9.894%	
CC(=O)N[C@H](C(=O)N[C@@H](CO)C(=O)N[C@@H](Cc1ccccc1)C(=O)N[C@]1(C)CCCCCCC=CCCC[C@@](C)(C(=O)N[C@@H](CCC(=O)O)C(N)=O)NC(=O)[C@H](CC2CCC2)NC(=O)[C@H](CC(C)C)NC(=O)[C@H](C)NC(=O)[C@H](Cc2c[nH]c3cc(Cl)ccc23)NC(=O)[C@H](Cc2ccc(O)cc2)NC(=O)[C@H](CCC(=O)O)NC1=O)[C@@H](C)O [MP-043] (Ac-TSF[R8]EY[Trp(6-Cl)]AL[Cba][S5]E-NH2; staple 4-11)	> 50 µM	3.493%	
CC(C)C[C@H](NC(=O)CCNC(=O)[C@@H](N)CCCCN=[N+]=[N-])C(=O)N[C@H](C(=O)N[C@@H](Cc1ccccc1)C(=O)N[C@]1(C)CCCCCCC=CCCC[C@@](C)(C(=O)N[C@@H](CO)C(=O)N[C@@H](C)C(=O)N[C@@H](C)C(N)=O)NC(=O)[C@H](CC2CCC2)NC(=O)[C@H](CCC(N)=O)NC(=O)[C@H](C)NC(=O)[C@H](Cc2c[nH]c3ccccc23)NC(=O)[C@H](Cc2ccc(O)cc2)NC(=O)[C@H](CCC(=O)O)NC1=O)[C@@H](C)O [MP-618]			EC50 ([1]; LDH: Cytotoxicity assay: EC50): > 50.7 µM
CC(=O)N[C@H](C(=O)N[C@@H](CCCNC(N)=O)C(=O)N[C@H](C(=O)N[C@@H](CO)C(=O)N[C@@H](Cc1ccccc1)C(=O)N[C@]1(C)CCCCCCC=CCCC[C@@](C)(C(N)=O)NC(=O)[C@H](CC(C)C)NC(=O)[C@H](CC(C)C)NC(=O)[C@H](C)NC(=O)[C@H](Cc2c[nH]c3ccccc23)NC(=O)[C@H](Cc2ccc(O)cc2)NC(=O)[C@H](CCC(=O)O)NC1=O)[C@@H](C)O)C(C)C [MP-9667]	> 50 µM	5.511%	
CC(=O)N[C@H](CC(C)C)C(=O)N[C@H](C(=O)N[C@@H](Cc1ccccc1)C(=O)N[C@]1(C)CCCCCCC=CCCC[C@@](C)(C(=O)N[C@@H](CO)C(=O)N[C@@H](C)C(=O)N[C@H](C)C(N)=O)NC(=O)[C@H](CC2CCC2)NC(=O)[C@H](CC(C)C)NC(=O)[C@H](CCC(N)=O)NC(=O)[C@H](Cc2c[nH]c3ccccc23)NC(=O)[C@H](Cc2ccc(O)cc2)NC(=O)[C@H](CCC(=O)O)NC1=O)[C@@H](C)O [MP-7202]			EC50 ([1]; LDH: Cytotoxicity assay: EC50): > 50.6 µM
CC(=O)N[C@@H](CN)C(=O)N[C@@H](CN)C(=O)NCCCCCC(=O)N[C@H](C(=O)N[C@@H](CO)C(=O)N[C@@H](Cc1ccccc1)C(=O)N[C@]1(C)CCCCCCC=CCCC[C@@](C)(C(=O)N[C@@H](CCC(=O)O)C(=O)N[C@@H](CC(N)=O)C(=O)N[C@@H](Cc2ccccc2)C(N)=O)NC(=O)[C@H](CC(C)C)NC(=O)[C@H](CC(C)C)NC(=O)[C@H](C)NC(=O)[C@H](Cc2c[nH]c3ccccc23)NC(=O)[C@H](Cc2ccc(O)cc2)NC(=O)[C@H](CCC(=O)O)NC1=O)[C@@H](C)O [MP-663] (Ac-[Dap][Dap][Ahx]TSF[R8]EYWALL[S5]ENF-NH2; staple 7-14)	> 50 µM		
